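Cells were grown in 96-well plates and exposed to each compound for 48 hours at five concentrations; endpoints were interpolated linearly between bracketing concentrations, or set to the highest concentration if not reached. Definition used: TGI = concentration required for complete inhibition of growth.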
How the values were obtained:
Experiment in all cases: NCI anticancer screen, dose series, 48 h
SNB-78 CNS = test system: SNB-78 CNS
SR leukemia = test system: SR leukemia
ACHN renal = test system: ACHN renal
LOX IMVI melanoma = test system: LOX IMVI melanoma
IGROV1 ovarian = test system: IGROV1 ovarian
786-0 renal = test system: 786-0 renal
M19-MEL melanoma = test system: M19-MEL melanoma
SF-295 CNS = test system: SF-295 CNS
NCI/ADR-RES ovarian = test system: NCI/ADR-RES ovarian
DU-145 prostate = test system: DU-145 prostate

Compound	TGI (SNB-78 CNS) [µM]	TGI (SR leukemia) [µM]	TGI (ACHN renal) [µM]	TGI (LOX IMVI melanoma) [µM]	TGI (IGROV1 ovarian) [µM]	TGI (786-0 renal) [µM]	TGI (M19-MEL melanoma) [µM]	TGI (SF-295 CNS) [µM]	TGI (NCI/ADR-RES ovarian) [µM]	TGI (DU-145 prostate) [µM]
CN(C)CCNC(=O)c1cccc2cc3c(Cl)cccc3nc12	8.26	14.8	2.35	2.33	6.96	> 20.2	3.18	–	–	–
CCc1cccc(C)c1NC(=O)C(=O)CC(=O)c1ccc(Cl)s1	> 100	> 100	> 100	> 100	> 100	> 100	> 100	> 100	–	–
CN(C)C(=N/O)/C(=N\O)N(C)C	> 100	> 100	> 100	> 100	> 100	> 100	> 100	> 100	–	–
c1ccc(C2OC3(CCC[C@H]4C[C@H]43)O[C@H]2c2ccccc2)cc1 (stereo partly specified)	> 100	54.2	> 100	56.8	> 100	> 100	84.8	> 100	–	–
CCOC(=O)Oc1cc2c(c(OC)c1OC)-c1ccc(OC)c(=O)cc1C(NC(C)=O)CC2 (stereo unspecified)	> 100	–	> 100	> 100	> 69.6	> 100	> 100	3.09	> 57.9	–
CC1=C(/C=C/C(C)=C/C2CC(N(C)C)=CC(=O)O2)C(C)(C)CCC1 (stereo unspecified)	41.9	28.7	24.8	30.3	29	29.2	29.3	26.1	–	–
Cc1ccc(S(=O)(=O)SC(C)(C)C)cc1	> 100	> 100	98.1	60.1	37.3	31.8	> 100	> 100	90.4	> 100
CC(=O)c1c2c(cc3c1CC1(C3)Cc3cc4c(c(C(C)=O)c3C1)CCC4)CCC2	> 100	> 100	> 100	> 100	> 100	> 100	> 100	> 100	–	–
O=C(/C=C/c1ccccc1F)c1ccc(Cl)c(Cl)c1	> 100	> 100	> 100	23.6	> 72.6	31.4	58.1	> 100	–	–
CC1=C(C(=O)Nc2ccccc2)C(c2cccc3ccccc23)C(C(=O)Nc2ccccc2)=C(C)N1	94.3	22.6	83.8	30.4	56.9	52.5	34.5	46.6	–	–

From PubChem BioAssay (NCI)
